Laboratory results published in patent publication US6441195B1, “Substituted sulphonylamino(thio) carbonyl compounds” (Bayer Aktiengesellschaft, priority 1995, dated 2002).

Columns and labels:
Assay type in all cases: in vivo
[1] = test system: weeds; assay: Pre-emergence test (greenhouse), activity against weeds; settings: in words
In short: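 Three weeks after treatment, % damage relative to untreated plants is scored, 0% meaning no effect. Seeds in normal soil received, roughly one day post-sowing, an aqueous dilution of an acetone/emulsifier concentrate, with the rate per unit area, not concentration, being the relevant dose.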

[2] = test system: Maize; assay: Pre-emergence test/Greenhouse, Maize; settings: in vivo
In short: (§1)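 Greenhouse pre-emergence: seeds sown in normal soil, soil drenched ~24 h later with an aqueous solvent/emulsifier preparation at a set rate per area. Three weeks on, plant damage scored in % relative to untreated plants.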

[3] = test system: Soya beans; assay: Pre-emergence test/Greenhouse, Soya beans; settings: in vivo
Protocol: To produce a suitable preparation of the active compound, 1 part by weight of active compound is mixed with the stated amount of solvent, the stated amount of emulsifier is added and the concentrate is diluted with water to the desired concentration.
Seeds of the test plants are sown in normal soil. After about 24 hours, the soil is watered with the preparation of active compound. Advantageously, the amount of water per unit area is kept constant. The active compound concentration in the preparation is not important, only the active compound appliation rate per unit area matters.
After three weeks, the degree of damage to the plants is rated in % damage in comparison to the development of the untreated control.
0%=no action (like untreated control)

[4] = test system: Lolium; assay: Pre-emergence test/Greenhouse, Lolium; settings: after three weeks
In short: as §1

[5] = test system: Poa; assay: Pre-emergence test/Greenhouse, Poa; settings: after three weeks
In short: as §1

[6] = test system: Sorghum; assay: Pre-emergence test/Greenhouse, Sorghum; settings: after three weeks
In short: as §1

[7] = test system: Ambrosia; assay: Pre-emergence test/Greenhouse, Ambrosia; settings: after three weeks
In short: as §1

[8] = test system: Matricaria; assay: Pre-emergence test/Greenhouse, Matricaria; settings: after three weeks
In short: as §1

[9] = test system: Solanum; assay: Pre-emergence test/Greenhouse, Solanum; settings: after three weeks
In short: as §1

Structure (SMILES)	activity against weeds [1]	degree of damage to the plants (% damage vs untreated control), Maize [2]	degree of damage to the plants (% damage vs untreated control), Soya beans [3]	degree of damage to the plants (% damage vs untreated control), Lolium ([4]; 60 g of ai./ha)	degree of damage to the plants (% damage vs untreated control), Poa ([5]; 60 g of ai./ha)	degree of damage to the plants (% damage vs untreated control), Sorghum ([6]; 60 g of ai./ha)	degree of damage to the plants (% damage vs untreated control), Ambrosia ([7]; 60 g of ai./ha)	degree of damage to the plants (% damage vs untreated control), Matricaria ([8]; 60 g of ai./ha)	degree of damage to the plants (% damage vs untreated control), Solanum ([9]; 60 g of ai./ha)	degree of damage to the plants (% damage vs untreated control), Lolium ([4]; 125 g of ai./ha)	degree of damage to the plants (% damage vs untreated control), Poa ([5]; 125 g of ai./ha)	degree of damage to the plants (% damage vs untreated control), Sorghum ([6]; 125 g of ai./ha)	degree of damage to the plants (% damage vs untreated control), Ambrosia ([7]; 125 g of ai./ha)	degree of damage to the plants (% damage vs untreated control), Matricaria ([8]; 125 g of ai./ha)	degree of damage to the plants (% damage vs untreated control), Solanum ([9]; 125 g of ai./ha)
C=CCOc1nn(C(=O)NS(=O)(=O)c2c(C)cccc2C(=O)OC)c(=O)n1C [Example 148]	very strong activity against weeds	40%	0%	80%	95%	90%	80%	80%	95%						
CCSc1nn(C(=O)NS(=O)(=O)c2c(C)cccc2C(=O)OC)c(=O)n1OC [Example 157]	very strong activity against weeds	0%	20%	90%	80%	80%	95%	100%	90%						
CCOC(=O)c1scc(C)c1S(=O)(=O)NC(=O)n1nc(C(C)C)n(C)c1=O [Example 68]	very strong activity against weeds	5%	10%							80%	90%	60%	95%	100%	95%
CCCOC(=O)c1cccc(C)c1S(=O)(=O)NC(=O)n1nc(OCCC)n(C)c1=O [Example 22]	very strong activity against weeds	20%	10%							95%	95%	80%	95%	95%	95%
CCSc1nn(C(=O)NS(=O)(=O)c2c(C)csc2C(=O)OC)c(=O)n1C [Example 34]	very strong activity against weeds	10%	0%	60%	70%	80%	90%	95%	90%						
COC(=O)c1cccc(C)c1S(=O)(=O)NC(=O)n1nc(SC)n(OC)c1=O [Example 156]	very strong activity against weeds	0%	10%	70%	90%	70%	70%	95%	70%						
